For experiment [1], the system named is breast cancer cell lines with dysregulated proteasome complex. In words: Drug response (AUC) of cell lines with vs without dysregulation in the proteasome complex. To be noted: 41 breast cancer cell lines, AUC ratio, FIG. 32C. Type of experiment: cell-based. The protocol:
(§1) The drug candidates were screened at different concentrations, and the response to each drug candidate was measured as an area under the curve (AUC). Three known complexes—the BRCA1-associated genome surveillance complex, the centromere, and the proteasome—were selected from the CORUM database, and for each complex, the cell lines evaluated were separated into a first group in which cell lines carried dysregulated protein-protein interactions on any of the proteins in the complex, and a second group in which cell lines carried no dysregulations on any of the proteins in the complex.
Each figure is a plot showing how protein-protein interaction dysregulation in one of the selected complexes affects the responses of the evaluated breast cancer cell lines to different drug candidates. In each plot, every data point represents a different drug candidate. The horizontal axis in each plot represents the base 2 logarithm of the ratio of the drug candidate response in cell lines with dysregulation to the drug candidate response in cell lines without dysregulation. The vertical axis in each plot, which corresponds to the base 10 logarithm of the Grubbs test p-value, represents the significance of the drug candidate response difference. […]

Experiment [2] deals with breast cancer cell lines with dysregulated BRCA1-associated genome surveillance complex. In words: Drug response (AUC) of cell lines with vs without dysregulation in the BRCA1-associated genome surveillance complex. Type of experiment: cell-based. To be noted: 41 breast cancer cell lines, AUC ratio dysregulated/not dysregulated, FIG. 32A. The protocol: as §1
(§2) Each figure is a plot showing how protein-protein interaction dysregulation in one of the selected complexes affects the responses of the evaluated breast cancer cell lines to different drug candidates. In each plot, every data point represents a different drug candidate. The horizontal axis in each plot represents the base 2 logarithm of the ratio of the drug candidate response in cell lines with dysregulation to the drug candidate response in cell lines without dysregulation. The vertical axis in each plot, which corresponds to the base 10 logarithm of the Grubbs test p-value, represents the significance of the drug candidate response difference.

Experiment [3] has as its system Aurora Kinases. The settings on record: cited from earlier work.
Experiment [4] concerns breast cancer cell lines with dysregulated centromere complex. In words: Drug response (AUC) of cell lines with vs without dysregulation in the centromere complex. Type of experiment: cell-based. The settings on record: 41 breast cancer cell lines, AUC ratio, FIG. 32B. On the procedure:
as §1, §2

Experiment [5] deals with H3122 cell line. In words: Ceritinib sensitivity of parental H3122 cell line. To be noted: Homo sapiens, NCI-H3122; ALK-positive H3122 parental cell line. Type of experiment: cell-based. On the procedure: (§3) In the particular study reported here, resistance to the small molecule ALK inhibitor Ceritinib was studied. The patient-derived cell line H3122 is a NSCLC line with an EML4-ALK fusion, and it is sensitive to Ceritinib. To simulate the clinical development of therapeutic resistance following initial treatment, this cell line was cultured over a period of 6 months with low but increasing doses of Ceritinib. […] These clones were expanded and comprise the cell lines LDKR1-4.
(§4) FIG. 5 is a schematic diagram showing the development of the cell lines.

The subject of experiment [6] is LDKR1-4 cell lines. In words: Ceritinib sensitivity of resistant clones LDKR1-4. Format: cell-based. On the procedure:
as §3, §4

In experiment [7] the target is ALK (Homo sapiens, UniProt Q9UM73). Kind of experiment: Proteomic/phosphoproteomic profiling of ALK phosphorylation after Ceritinib treatment. Format: cell-based. On the procedure: The H3122 parental and LDKR1-4 cell lines were each grown in culture with or without the addition of Ceritinib for 24 hours, and harvested cells were subsequently processed for both proteomic and phosphoproteomic analyses. Specifically, each of the cell lines was cultured in RPMI-1640 media supplemented with 10% FBS, 100 units/mL penicillin, and 100 μg/mL streptomycin. Cells were treated for 24 hours with 300 nM Ceritinib (also known as LDK378). Cells were collected, and the cell pellets were resuspended in mammalian lysis buffer and lysed by passage through a 21 gauge needle. The lysate was centrifuged at 15,000×g for 5 minutes at 4° C., and insoluble debris was discarded.
The lysates were then prepared for mass spectrometry analysis. Samples were reduced with DTT, alkylated with iodoacetamide, and precipitated with methanol/chloroform. […] Samples were quenched with 1% TFA and desalted using Sep-Pak C18 (SPE) cartridges (obtained from Waters Corp., Milford, MA). The peptide concentration of each sample was determined using a BCA assay.
For phosphoproteomic analysis, 2.0 mg of digested peptides were enriched for phosphopeptides using titanium dioxide beads, labeled with TMT10-plex reagents, and further enriched with a phosphotyrosine antibody. Specifically, 8 mg of titanium dioxide beads were incubated with the peptide in binding buffer (2 M lactic acid in 50% ACN/50% H2O) for 1 hour with gentle shaking. […] Samples were acidified and desalted over Sep-Pak C18 SPE cartridges.

Experiment [8] concerns the target T1, polo-like Kinase 4 (PLK4) (Homo sapiens, UniProt O00444).
T1 sequence (O00444 1-970): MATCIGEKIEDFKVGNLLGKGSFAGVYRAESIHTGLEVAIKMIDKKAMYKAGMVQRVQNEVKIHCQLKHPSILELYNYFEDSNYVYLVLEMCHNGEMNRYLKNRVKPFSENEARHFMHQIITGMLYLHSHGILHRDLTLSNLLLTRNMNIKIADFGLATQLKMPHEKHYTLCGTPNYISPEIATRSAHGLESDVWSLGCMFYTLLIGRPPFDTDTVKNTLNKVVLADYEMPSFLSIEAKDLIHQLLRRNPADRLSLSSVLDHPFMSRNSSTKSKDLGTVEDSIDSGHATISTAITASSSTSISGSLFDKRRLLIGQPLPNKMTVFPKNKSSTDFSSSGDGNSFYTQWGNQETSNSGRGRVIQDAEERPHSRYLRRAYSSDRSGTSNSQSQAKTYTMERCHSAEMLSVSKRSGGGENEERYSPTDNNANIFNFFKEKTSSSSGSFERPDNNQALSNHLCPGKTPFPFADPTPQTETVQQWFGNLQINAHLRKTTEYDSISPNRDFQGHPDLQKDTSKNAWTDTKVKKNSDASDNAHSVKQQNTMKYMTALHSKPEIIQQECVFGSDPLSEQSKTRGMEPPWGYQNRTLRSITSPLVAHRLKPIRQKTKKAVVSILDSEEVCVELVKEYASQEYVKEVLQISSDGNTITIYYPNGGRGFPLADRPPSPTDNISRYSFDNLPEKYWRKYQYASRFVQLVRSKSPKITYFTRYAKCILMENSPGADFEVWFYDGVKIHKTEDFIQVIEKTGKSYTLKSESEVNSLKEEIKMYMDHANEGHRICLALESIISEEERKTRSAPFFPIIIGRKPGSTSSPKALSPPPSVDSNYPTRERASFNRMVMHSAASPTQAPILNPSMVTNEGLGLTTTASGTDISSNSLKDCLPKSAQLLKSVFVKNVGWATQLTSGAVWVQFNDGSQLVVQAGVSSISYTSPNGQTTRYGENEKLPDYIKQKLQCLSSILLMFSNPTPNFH
To be noted: cited from earlier work.

Setting [9] is: parental H3122, 300 nM Ceritinib, 24 hours, ratio to parental with no drug.

Sequence of ALK (Q9UM73 with tags, fused parts or gaps): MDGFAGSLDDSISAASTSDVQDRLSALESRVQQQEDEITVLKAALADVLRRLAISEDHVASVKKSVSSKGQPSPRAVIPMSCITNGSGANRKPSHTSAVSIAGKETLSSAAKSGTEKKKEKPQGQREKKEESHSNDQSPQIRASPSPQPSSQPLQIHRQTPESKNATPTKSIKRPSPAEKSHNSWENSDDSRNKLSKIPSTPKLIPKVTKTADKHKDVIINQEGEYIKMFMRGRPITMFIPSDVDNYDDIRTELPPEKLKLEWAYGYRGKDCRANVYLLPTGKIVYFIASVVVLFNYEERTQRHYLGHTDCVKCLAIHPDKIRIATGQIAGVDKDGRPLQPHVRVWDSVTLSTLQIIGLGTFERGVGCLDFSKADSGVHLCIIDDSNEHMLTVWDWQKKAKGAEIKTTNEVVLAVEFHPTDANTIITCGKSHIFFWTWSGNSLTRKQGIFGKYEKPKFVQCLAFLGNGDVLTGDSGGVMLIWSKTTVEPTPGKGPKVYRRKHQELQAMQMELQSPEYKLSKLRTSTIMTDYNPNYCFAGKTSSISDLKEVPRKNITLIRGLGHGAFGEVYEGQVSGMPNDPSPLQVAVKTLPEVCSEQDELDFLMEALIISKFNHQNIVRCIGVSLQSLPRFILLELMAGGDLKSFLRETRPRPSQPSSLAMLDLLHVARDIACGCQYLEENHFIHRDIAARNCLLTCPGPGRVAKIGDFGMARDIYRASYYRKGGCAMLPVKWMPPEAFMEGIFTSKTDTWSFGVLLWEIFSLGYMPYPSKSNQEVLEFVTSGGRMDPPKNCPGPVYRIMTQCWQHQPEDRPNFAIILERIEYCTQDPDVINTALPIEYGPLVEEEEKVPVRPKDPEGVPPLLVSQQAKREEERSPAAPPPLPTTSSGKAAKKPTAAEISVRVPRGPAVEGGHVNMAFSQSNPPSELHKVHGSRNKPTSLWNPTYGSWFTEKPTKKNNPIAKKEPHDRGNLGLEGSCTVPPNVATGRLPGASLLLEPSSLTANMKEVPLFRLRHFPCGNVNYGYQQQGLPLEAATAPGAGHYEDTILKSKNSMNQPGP

Consider `CC(C)C[C@H](NC(=O)[C@H](CCc1ccccc1)NC(=O)CN1CCOCC1)C(=O)N[C@@H](Cc1ccccc1)C(=O)N[C@@H](CC(C)C)C(=O)[C@@]1(C)CO1` [Carfilzomib], for which the “effect of dysregulation in the proteasome complex on cell line response to drug” value in experiment [1] is on record as “densensitized”.

In the case of Bleomycin, in experiment [2], the “effect of dysregulation in the genome surveillance complex on cell line response to drug” value is listed as “sensitize”.

On to `NC(=O)Nc1sc(-c2ccc(F)cc2)cc1C(N)=O` [TPCA-1], for which the “inhibition of Aurora Kinases” value in experiment [3] is “potently inhibit”.

For `Cc1cc(Nc2nc(N[C@@H](C)c3ncc(F)cn3)ncc2Cl)n[nH]1` [AZD1480], the “inhibition of Aurora Kinases” value in experiment [3] is recorded as “potently inhibit”.

On to `O=C(CCCCCCNC(=O)c1cnc(N(c2ccccc2)c2ccccc2)nc1)NO` [ACY-1215], for which the “effect of dysregulation in the centromere complex on cell line response to drug” value in experiment [4] is on record as “sensitize”.

Regarding `C#Cc1cccc(Nc2ncnc3cc(OC)c(OCCCCCCC(=O)NO)cc23)c1` [CUDC-101], the “effect of dysregulation in the centromere complex on cell line response to drug” value in experiment [4] is “sensitize”.

The term IC50 denotes the concentration that gives 50% inhibition. As for `Cc1cc(Nc2ncc(Cl)c(Nc3ccccc3S(=O)(=O)C(C)C)n2)c(OC(C)C)cc1C1CCNCC1` [Ceritinib], the results for the IC50 in experiment [5] and in experiment [6] (resistant clones LDKR1-4) were 53 nM and 1490 to 3900 nM, respectively. Moreover, the “IC50 relative to the parental sensitive cell line” value in experiment [6] (four resistant clones vs parental H3122) is reported as “at least twenty times higher”. Moreover, in experiment [7] (LDKR1-4, Ceritinib treatment), the “inhibition of ALK activity in resistant cell lines” value is recorded as “continued to be effective at inhibiting ALK activity in at least three of the four resistant cell lines”. Moreover, the “ALK Thr 1506/Tyr 1507/Ser 1509 phosphorylation upon drug treatment” value in experiment [7] (setting [9]) is “decreasing fourfold”. Besides, the “ALK Tyr 1078 phosphorylation upon drug treatment” value in experiment [7] (setting [9]) is “decreased”.

On to `COc1cc2c(Oc3ccc(NC(=O)C4(C(=O)Nc5ccc(F)cc5)CC4)cc3F)ccnc2cc1OCCCN1CCOCC1` [XL-880, foretinib], for which the “inhibition of polo-like Kinase 4 (PLK4)” value in experiment [8] was “inhibits”. For the same molecule, the “inhibition of Aurora Kinases” value in experiment [3] was “potently inhibit”.

As for `Nc1ccn([C@@H]2O[C@H](CO)[C@@H](O)C2(F)F)c(=O)n1` [Gemcitabine], the “effect of dysregulation in the genome surveillance complex on cell line response to drug” value in experiment [2] is on record as “sensitize”.

With `O=C(/C=C/c1ccc(CN(CCO)CCc2c[nH]c3ccccc23)cc1)NO` [LAQ824], the “effect of dysregulation in the centromere complex on cell line response to drug” value in experiment [4] is on record as “sensitize”.

(Values after patent US11899022B2, “Multiplexed proteomics and predictive drug candidate assessment” (The General Hospital Corporation, priority 2017, dated 2024).)
